Measured values: the supplement of paper PMC10307832

How the values were obtained:
Experiment in all cases: relative viability (nuclei count vs DMSO), 5 days (fraction); higher = more cells survive
[1] = compound: CC1=CC(=CC=C1)NC2=NC(=CS2)C3=CC=NC=C3 + CC(=O)c1c(C)c2cnc(Nc3ccc(N4CCNCC4)cn3)nc2n(C2CCCC2)c1=O [Palbociclib] (partner 0.5 µM)
Outline: (§1)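 Lung cancer cell lines were pin-tool dosed in 1536-well plates on the day after seeding, with either a lone drug or a fixed anchor-drug dose plus five library-drug doses (not always all listed) in √10 steps. Nuclei were counted on 4× images after 5 days. Relative viability is the ratio of treated-well to vehicle-well nuclei counts, with each value a median of duplicate plates.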

Masitinib + Decitabine = compound: Cc1ccc(NC(=O)c2ccc(CN3CCN(C)CC3)cc2)cc1Nc1nc(-c2cccnc2)cs1 [Masitinib] + Nc1ncn([C@H]2C[C@H](O)[C@@H](CO)O2)c(=O)n1 [Decitabine] (partner 2 µM)
Outline: as §1

[2] = compound: CC1=CC(=CC=C1)NC2=NC(=CS2)C3=CC=NC=C3 + Nc1nc2[nH]cc(CCc3ccc(C(=O)N[C@@H](CCC(=O)O)C(=O)O)cc3)c2c(=O)[nH]1 [Pemetrexed] (partner 0.2 µM)
Outline: as §1

Masitinib + Alpelisib = compound: Cc1ccc(NC(=O)c2ccc(CN3CCN(C)CC3)cc2)cc1Nc1nc(-c2cccnc2)cs1 [Masitinib] + Cc1nc(NC(=O)N2CCC[C@H]2C(N)=O)sc1-c1ccnc(C(C)(C)C(F)(F)F)c1 [Alpelisib] (partner 2 µM)
Outline: as §1

Cell Line | relative viability ([1]; first compound 0.08 µM) | relative viability ([1]; first compound 0.253 µM) | relative viability ([1]; first compound 0.8 µM) | relative viability ([1]; first compound 2.53 µM) | relative viability ([1]; first compound 8 µM) | relative viability (Masitinib + Decitabine; first compound 0.01 µM) | relative viability (Masitinib + Decitabine; first compound 0.03162 µM) | relative viability (Masitinib + Decitabine; first compound 0.1 µM) | relative viability (Masitinib + Decitabine; first compound 0.3162 µM) | relative viability (Masitinib + Decitabine; first compound 1 µM) | relative viability ([2]; first compound 0.08 µM) | relative viability ([2]; first compound 0.253 µM) | relative viability ([2]; first compound 0.8 µM) | relative viability ([2]; first compound 2.53 µM) | relative viability ([2]; first compound 8 µM) | relative viability (Masitinib + Alpelisib; first compound 0.01 µM) | relative viability (Masitinib + Alpelisib; first compound 0.1 µM) | relative viability (Masitinib + Alpelisib; first compound 0.3162 µM) | relative viability (Masitinib + Alpelisib; first compound 1 µM) | relative viability (Masitinib + Alpelisib; first compound 0.03162 µM)
NCI-H1993 | 0.594 | 0.604 | 0.476 | 0.554 | 0.533 | 0.49 | 0.545 | 0.534 | 0.459 | 0.496 | 0.507 | 0.517 | 0.618 | 0.547 | 0.578 | 0.669 | 0.627 | 0.728 | 0.636 | –
CAL-12T | 0.402 | 0.414 | 0.391 | 0.329 | 0.586 | – | – | – | – | – | 1.19 | 0.94 | 1.15 | 1.05 | 1.07 | 1.21 | 1.18 | 1.36 | 1.18 | 1.2
HCC-44 | 0.912 | 0.779 | 0.851 | 0.874 | 0.805 | 0.665 | 0.898 | 0.675 | 0.868 | 1.09 | 0.537 | 0.55 | 0.586 | 0.663 | 0.607 | 0.748 | 0.88 | 0.69 | 0.834 | 0.752
EKVX | 0.36 | 0.384 | – | 0.39 | 0.268 | 0.342 | 0.31 | 0.35 | – | 0.541 | 0.361 | 0.333 | – | 0.32 | 0.328 | – | 0.786 | 0.706 | 0.944 | 0.779
NCI-H1666 | 0.664 | 0.631 | 0.546 | 0.584 | 0.617 | 0.698 | 0.665 | 0.703 | 0.626 | 0.647 | 0.787 | 0.749 | 0.603 | 0.738 | 0.674 | 0.92 | 0.943 | 0.706 | 0.99 | 1.05
NCI-H2170 | 0.358 | 0.403 | 0.358 | 0.435 | 0.299 | 0.467 | 0.473 | 0.509 | 0.488 | 0.449 | 0.229 | 0.286 | 0.27 | 0.26 | 0.264 | 0.912 | 0.902 | 0.784 | 0.801 | 0.688
NCI-H1734 | 0.352 | 0.315 | 0.344 | 0.347 | 0.359 | 0.539 | 0.485 | 0.546 | 0.522 | 0.483 | 0.374 | 0.421 | 0.409 | 0.44 | 0.371 | 0.616 | 0.764 | 0.383 | 0.658 | 0.715
Calu-6 | – | – | – | – | – | – | – | – | – | – | – | – | – | – | – | 1.02 | 1.02 | 0.872 | 0.923 | 1.01
EBC-1 | – | – | – | – | – | – | – | – | – | – | – | – | – | – | – | 0.835 | 1.01 | 0.715 | 0.822 | 0.713
A-427 | 0.473 | 0.531 | 0.485 | 0.538 | 0.5 | 0.491 | 0.539 | 0.567 | 0.515 | 0.541 | 0.915 | 1.02 | 0.987 | 0.899 | 0.932 | – | – | 1.05 | 1.08 | 1.09
NCI-H2405 | 0.49 | 0.489 | 0.488 | – | 0.498 | 0.688 | 0.692 | 0.762 | 0.764 | 0.692 | 0.921 | 0.985 | 0.999 | – | 0.903 | 0.838 | 0.896 | 0.737 | 0.802 | 0.945
NCI-H1437 | 0.316 | 0.331 | 0.301 | 0.23 | 0.289 | 0.559 | 0.565 | 0.582 | 0.524 | 0.527 | 0.349 | 0.326 | 0.27 | 0.31 | 0.283 | 0.918 | 1.01 | 1.08 | 0.962 | 0.979
SK-MES-1 | 0.259 | 0.243 | 0.328 | 0.311 | 0.32 | 0.329 | 0.399 | 0.376 | 0.39 | 0.337 | 0.757 | 0.762 | 0.787 | 0.822 | 0.862 | 1.07 | 1.08 | 0.921 | 0.732 | 0.946
RERF-LC-KJ | 1 | 0.998 | 0.743 | 0.787 | 0.618 | 0.631 | 0.71 | 0.743 | 0.762 | 0.618 | 0.518 | 0.488 | 0.506 | 0.361 | 0.474 | 0.865 | 0.917 | 0.842 | 0.738 | 0.762
NCI-H23 | 0.37 | 0.459 | 0.518 | 0.479 | 0.524 | 0.312 | 0.346 | 0.341 | 0.274 | 0.262 | 0.629 | 0.447 | 0.66 | 0.582 | 0.778 | 0.639 | 0.659 | 0.579 | 0.669 | 0.49
HOP-62 | 0.454 | 0.446 | 0.497 | 0.447 | 0.571 | 0.22 | 0.222 | 0.23 | 0.201 | 0.212 | 0.325 | 0.412 | 0.458 | 0.369 | 0.319 | 0.777 | 1.18 | 1.07 | 0.83 | 1.09
HARA | 0.238 | 0.237 | 0.196 | 0.222 | 0.324 | 0.474 | 0.4 | 0.634 | – | 0.508 | 0.267 | 0.22 | 0.203 | 0.255 | 0.276 | 0.798 | 0.809 | 0.727 | 0.822 | 0.621
PC-14 | 0.502 | 0.484 | 0.553 | 0.515 | 0.394 | 0.217 | 0.202 | 0.192 | 0.16 | 0.25 | 0.144 | 0.131 | 0.141 | 0.134 | 0.136 | 0.915 | 1.11 | 1.01 | 0.846 | 0.865
